{
  "source": "patent US11724981B2",
  "about": "“Cationic surfactants comprising an ether link” (Battelle Memorial Institute, priority 2018, dated 2023)",
  "test": "Aquatic toxicity according to Method 2007",
  "details": "in vivo, Mysidopsis Bahia",
  "from_the_text": "(References: OECD Guideline for the Testing of Chemicals: BG1Luc Estrogen Receptor Transactivation Test Method for Identifying Estrogen Receptor Agonists and Antagonists, OECD Guidelines for the Testing of Chemicals, Section 4, OECD Publishing, Paris, https://doi.org/10.1787/9789264185395-en, and http://ntp.niehs.nih.gov/ntp/about_ntp/sacatm/2012/september/d_draft_oecdtg457bg1luc_508.pdf; and G. Bittner, M. Denison, C. Yang, M. Stoner and G. He, Environmental Health 2014, 13 103). They were also tested for aquatic toxicity according to Method 2007 using Mysidopsis Bahia.",
  "data": [
    {"compound": "CCCCCCCCCCCCCCCC[N+](C)(C)C", "note": "[CTAB, cetyl trimethyl ammonium bromide]", "values": [
      {"measurement": "LC50 at 96 h", "value": 0.2, "unit": "µg/mL"}
    ]}
  ]
}
